Common to all, as to type: biochemical
In one assay the target is T1, TACE (ADAM17) (Homo sapiens, UniProt P78536).
T1 construct: purchased Enzo Life Sciences, Inc. BML-AK310
The experiment in a line: TACE fluorometric inhibition assay (Enzo kit). The following applies: quenched fluorogenic peptide, ex/em 320 nm/420 nm; read-out: TACE IC50 class. Here is the method:
(§1) The inhibitory activities of the compounds of the invention were assessed in 96-well microplate format using MMP1, MMP2, MMP9 and MMP13 colorimetric assay kits and TACE fluorometric assay kit from Enzo Life Sciences, Inc. The inhibitory effect of the compounds of the invention on ADAM10 activity were evaluated in 96-well microplate format using fluorometric assay from AnaSpec, Inc.
The TACE Fluorometric Drug Discovery Kit (catalog #BML-AK310) is a complete assay system designed to screen ADAM17 (TACE) inhibitors using a quenched fluorogenic peptide: Mca-PLAQAV-Dpa-RSSSR-NH2. Mca fluorescence is quenched by the Dpa group until cleavage by proteases separates the two moieties leading to an increase in Mca fluorescence.
The inhibitory activity of the compounds of the invention against TACE was tested according to the manufacturer's assay protocol and the fluorescence was monitored at excitation/emission wavelengths=320 nm/420 nm using Tecan Infinite® 200 Pro F Nano^+ microplate reader.
(§2) The normalized values were analyzed using GraphPadPrism 9 for Windows (GraphPad Software, San Diego, CA, USA) software by plotting inhibition curves and determining the IC50 values.
(§3) The calculated IC50 values were divided into the following classes: • A: <50 nM; B: 50-1000 nM; C: >1000-10,000 nM; D: >10,000 nM

The next assay concerns the target T2, MMP9 (Homo sapiens, UniProt P14780).
T2 construct: purchased Enzo Life Sciences, Inc. BML-AK410
Briefly: MMP-9 colorimetric inhibition assay (Enzo kit). The following applies: colorimetric thiopeptide substrate, absorbance 415 nm; read-out: MMP9 IC50 class. As for the experimental part:
as §1
The MMP-9 Colorimetric Drug Discovery Kit (catalog #BML-AK410) is a complete assay system designed to screen inhibitors of matrix metalloproteinase-9 using a thiopeptide as a chromogenic substrate (Ac-PLG-[2-mercapto-4-methylpentanoyl]-LG-OC2H5). The MMP cleavage site peptide bond is replaced by a thioester bond in the thiopeptide. Hydrolysis of this bond by an MMP produces a sulfhydryl group, which reacts with DTNB [5,5′-dithiobis(2-nitrobenzoic acid), Ellman's reagent] to form 2-nitro-5-thiobenzoic acid, that can be detected spectrophotometrically.
(§4) The inhibitory activities of the compounds of the invention against MMP1, MMP2, MMP9 and MMP13 were tested according to the manufacturer's assay protocols and the absorbance at 415 nm was monitored using the Tecan Infinite® 200 Pro F Nano^+ microplate reader.
as §2, §3

Another assay deals with T3, MMP13 (Homo sapiens, UniProt P45452).
T3 construct: purchased Enzo Life Sciences, Inc. BML-AK412
Briefly: MMP-13 colorimetric inhibition assay (Enzo kit). The settings on record: colorimetric thiopeptide substrate, absorbance 415 nm; read-out: MMP13 IC50 class. As for the experimental part: as §1
The MMP-13 Colorimetric Drug Discovery Kit (catalog #BML-AK412) is a complete assay system designed to screen inhibitors of matrix metalloproteinase-13 using a thiopeptide as a chromogenic substrate (Ac-PLG-[2-mercapto-4-methylpentanoyl]-LG-OC2H5). The MMP cleavage site peptide bond is replaced by a thioester bond in the thiopeptide. Hydrolysis of this bond by an MMP produces a sulfhydryl group, which reacts with DTNB [5,5′-dithiobis(2-nitrobenzoic acid), Ellman's reagent] to form 2-nitro-5-thiobenzoic acid, that can be detected spectrophotometrically.
as §4, §2, §3

The target of another assay is T4, MMP1 (Homo sapiens, UniProt P03956).
T4 construct: purchased Enzo Life Sciences, Inc. BML-AK404
T4 sequence (P03956 100-469): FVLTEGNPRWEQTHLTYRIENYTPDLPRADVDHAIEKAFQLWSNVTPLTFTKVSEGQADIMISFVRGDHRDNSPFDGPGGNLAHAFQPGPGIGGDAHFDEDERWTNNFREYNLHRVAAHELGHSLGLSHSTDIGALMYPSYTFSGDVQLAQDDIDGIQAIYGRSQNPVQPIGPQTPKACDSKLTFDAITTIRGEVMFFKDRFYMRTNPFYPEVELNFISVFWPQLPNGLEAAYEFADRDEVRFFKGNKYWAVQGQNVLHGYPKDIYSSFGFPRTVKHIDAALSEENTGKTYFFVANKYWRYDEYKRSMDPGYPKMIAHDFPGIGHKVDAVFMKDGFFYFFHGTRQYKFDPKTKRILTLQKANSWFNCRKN
Briefly: MMP-1 colorimetric inhibition assay (Enzo kit). The following applies: colorimetric thiopeptide substrate, absorbance 415 nm; read-out: MMP1 IC50 class. Here is the method: as §1
The MMP-1 Colorimetric Drug Discovery Kit (catalog #BML-AK404) is a complete assay system designed to screen inhibitors of matrix metalloproteinase-1 using a thiopeptide as a chromogenic substrate (Ac-PLG-[2-mercapto-4-methylpentanoyl]-LG-OC2H5). The MMP cleavage site peptide bond is replaced by a thioester bond in the thiopeptide. Hydrolysis of this bond by an MMP produces a sulfhydryl group, which reacts with DTNB [5,5′-dithiobis(2-nitrobenzoic acid), Ellman's reagent] to form 2-nitro-5-thiobenzoic acid, that can be detected spectrophotometrically.
as §4, §2, §3

For a further assay, the target named is T5, MMP2 (Homo sapiens, UniProt P08253).
T5 construct: purchased Enzo Life Sciences, Inc. BML-AK408
T5 sequence (P08253 110-452 limits assumed): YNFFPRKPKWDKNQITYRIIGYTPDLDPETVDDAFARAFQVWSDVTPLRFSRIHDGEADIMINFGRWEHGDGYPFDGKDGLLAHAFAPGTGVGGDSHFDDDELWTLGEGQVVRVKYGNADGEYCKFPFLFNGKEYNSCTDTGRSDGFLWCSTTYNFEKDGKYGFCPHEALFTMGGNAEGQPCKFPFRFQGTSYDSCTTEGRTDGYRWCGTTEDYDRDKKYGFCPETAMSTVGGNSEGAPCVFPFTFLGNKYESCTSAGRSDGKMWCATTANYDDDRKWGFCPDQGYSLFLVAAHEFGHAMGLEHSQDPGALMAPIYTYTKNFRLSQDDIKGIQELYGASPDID
The experiment in a line: MMP-2 colorimetric inhibition assay (Enzo kit). The settings on record: colorimetric thiopeptide substrate, absorbance 415 nm; read-out: MMP2 IC50 class. As for the experimental part:
as §1
The MMP-2 Colorimetric Drug Discovery Kit (catalog #BML-AK408) is a complete assay system designed to screen MMP-2 inhibitors using a thiopeptide as a chromogenic substrate (Ac-PLG-[2-mercapto-4-methylpentanoyl]-LG-OC2H5). The MMP cleavage site peptide bond is replaced by a thioester bond in the thiopeptide. Hydrolysis of this bond by an MMP produces a sulfhydryl group, which reacts with DTNB [5,5′-dithiobis(2-nitrobenzoic acid), Ellman's reagent] to form 2-nitro-5-thiobenzoic acid, that can be detected spectrophotometrically.
as §4, §2, §3

Molecules are shown by their SMILES.

These results are taken from patent US20250026761A1, “DIAZABICYCLOOCTANE DERIVATIVES USEFUL AS MATRIX METALLOPROTEINASE INHIBITORS” (VASA THERAPEUTICS SPÓLKA Z OGRANICZONA ODPOWIEDZIALNOSCIA, priority 2021, published 2025).

T1 sequence (P78536 223-474 limits assumed): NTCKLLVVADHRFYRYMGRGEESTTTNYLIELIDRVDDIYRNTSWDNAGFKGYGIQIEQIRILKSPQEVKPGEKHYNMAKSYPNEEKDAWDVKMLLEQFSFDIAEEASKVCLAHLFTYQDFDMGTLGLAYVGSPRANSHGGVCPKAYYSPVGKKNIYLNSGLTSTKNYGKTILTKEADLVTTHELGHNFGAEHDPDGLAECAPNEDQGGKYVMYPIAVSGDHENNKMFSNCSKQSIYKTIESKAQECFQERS
T2 sequence (P14780 94-707): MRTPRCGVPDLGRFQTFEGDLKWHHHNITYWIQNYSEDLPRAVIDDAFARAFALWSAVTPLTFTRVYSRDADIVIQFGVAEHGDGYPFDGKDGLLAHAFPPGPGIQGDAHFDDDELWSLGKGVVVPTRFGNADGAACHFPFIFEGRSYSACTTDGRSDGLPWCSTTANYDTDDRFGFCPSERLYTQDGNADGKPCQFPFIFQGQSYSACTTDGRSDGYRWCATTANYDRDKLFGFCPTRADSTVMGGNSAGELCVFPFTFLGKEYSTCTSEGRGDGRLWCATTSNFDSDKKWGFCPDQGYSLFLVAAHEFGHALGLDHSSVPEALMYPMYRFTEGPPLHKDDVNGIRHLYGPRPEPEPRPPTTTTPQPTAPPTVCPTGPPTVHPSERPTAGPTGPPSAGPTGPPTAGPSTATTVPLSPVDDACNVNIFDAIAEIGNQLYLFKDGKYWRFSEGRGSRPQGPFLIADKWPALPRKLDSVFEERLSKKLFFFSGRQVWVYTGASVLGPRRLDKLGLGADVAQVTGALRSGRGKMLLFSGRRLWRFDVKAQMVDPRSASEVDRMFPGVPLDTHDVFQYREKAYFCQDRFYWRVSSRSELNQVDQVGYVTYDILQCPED

In the case of `COCCOC(=O)N1CC2CCC(C(=O)NO)(C1)N2S(=O)(=O)c1ccc(Oc2ccc(F)cc2)c(F)c1` (stereo not drawn) [Example 5, 2-methoxyethyl 8-((3-fluoro-4-(4-fluorophenoxy)phenyl)sulfonyl)-1-(hydroxycarbamoyl)-3,8-diazabicyclo[3.2.1]octane-3-carboxylate], the IC50 was greater than 10000 nM at TACE (ADAM17); less than 50 nM on MMP9; less than 50 nM on MMP13; greater than 10000 nM on MMP1; less than 50 nM at MMP2.

For `COCCOC(=O)N1CC2CCC(C(=O)NO)(C1)N2S(=O)(=O)c1ccc(Oc2ccc(F)cc2)nc1` (stereo not drawn) [Example 13, 2-methoxyethyl 8-((6-(4-fluorophenoxy)pyridin-3-yl)sulfonyl)-1-(hydroxycarbamoyl)-3,8-diazabicyclo[3.2.1]octane-3-carboxylate], the IC50 is 1000 to 10000 nM at TACE (ADAM17); less than 50 nM on MMP9; 50 to 1000 nM at MMP13; 1000 to 10000 nM on MMP1; 50 to 1000 nM at MMP2.

As to `COCCOC(=O)N1CC2CCC(C(=O)NO)(C1)N2S(=O)(=O)N1CCC(Oc2ccc(Cl)cc2)CC1` (stereo not drawn) [Example 19, 2-methoxyethyl 8-((4-(4-chlorophenoxy)piperidin-1-yl)sulfonyl)-1-(hydroxycarbamoyl)-3,8-diazabicyclo[3.2.1]octane-3-carboxylate], the IC50 is 1000 to 10000 nM on TACE (ADAM17); less than 50 nM on MMP9; less than 50 nM on MMP13; 1000 to 10000 nM on MMP1; less than 50 nM at MMP2.

Turning to `COCCOC(=O)N1CC2CCC(C(=O)NO)(C1)N2S(=O)(=O)N1CCC(Oc2ccc(F)cn2)CC1` (stereo not drawn) [Example 20, 2-methoxyethyl 8-((4-((5-fluoropyridin-2-yl)oxy)piperidin-1-yl)sulfonyl)-1-(hydroxycarbamoyl)-3,8-diazabicyclo[3.2.1]octane-3-carboxylate], the IC50 at TACE (ADAM17) was greater than 10000 nM; at MMP9 it was 50 to 1000 nM; at MMP13 it was 50 to 1000 nM; on MMP1, greater than 10000 nM; at MMP2, 50 to 1000 nM.

Turning to `COCCOC(=O)N1CC2CCC(C(=O)NO)(C1)N2S(=O)(=O)N1CCC(Oc2ccncc2)CC1` (stereo not drawn) [Example 21, 2-methoxyethyl 1-(hydroxycarbamoyl)-8-((4-(pyridin-4-yloxy)piperidin-1-yl)sulfonyl)-3,8-diazabicyclo[3.2.1]octane-3-carboxylate], the IC50 at TACE (ADAM17) was greater than 10000 nM; on MMP9 it was 50 to 1000 nM; on MMP13 it was 50 to 1000 nM; on MMP1, greater than 10000 nM; at MMP2, less than 50 nM.

Turning to `COCCOC(=O)N1CC2CCC(C(=O)NO)(C1)N2S(=O)(=O)N1CCN(Cc2ccc(F)cc2)CC1` (stereo not drawn) [Example 22, 2-methoxyethyl 8-((4-(4-fluorobenzyl)piperazin-1-yl)sulfonyl)-1-(hydroxycarbamoyl)-3,8-diazabicyclo[3.2.1]octane-3-carboxylate], the IC50 at TACE (ADAM17) was greater than 10000 nM; on MMP9, 1000 to 10000 nM; on MMP13 it was 1000 to 10000 nM; at MMP1, greater than 10000 nM; at MMP2, 1000 to 10000 nM.
